Key:
bromegrass, downy [1] = test: Test D pre-/postemergence herbicide test; format: in vivo, Bromus tectorum; conditions: Postemergence, Bromegrass, Downy, scale 0 to 100
From the text: Seeds of plant species selected from bluegrass (annual bluegrass, Poa annua), blackgrass (Alopecurus myosuroides), canarygrass (littleseed canarygrass, Phalaris minor), chickweed (common chickweed, Stellaria media), galium (catchweed bedstraw, Galium aparine), bromegrass, downy (downy bromegrass, Bromus tectorum), field poppy (Papaver rhoeas), field violet (Viola arvensis), foxtail, green (green foxtail, Setaria viridis), deadnettle (henbit deadnettle, Lamium amplexicaule), ryegrass, Italian (Italian ryegrass, Lolium multiflorum), kochia (Kochia scoparia), lambsquarters (Chenopodium album), oilseed rape (Brassica napus), pigweed (Amaranthus retroflexus), chamomile (scentless chamomile, Matricaria inodora), Russian thistle (Salsola kali), speedwell (bird's-eye speedwell, Veronica persica), barley, spring (spring barley, Hordeum vulgare), wheat, spring (spring wheat, Triticum aestivum), buckwheat, wild (wild buckwheat, Polygonum convolvulus), mustard, wild (wild mustard, Sinapis arvensis), oat, wild (wild oat, Avena fatua), radish, wild (wild radish, Raphanus raphanistrum), […]), barley, winter (winter barley, Hordeum vulgare), and wheat, winter (winter wheat, Triticum aestivum) were planted into a silt loam soil and treated preemergence with test chemicals formulated in a non-phytotoxic solvent mixture which included a surfactant. At the same time, these species were planted in pots containing Redi-Earth® planting medium (Scotts Company, 14111 Scottslawn Road, Marysville, Ohio 43041) comprising spaghnum peat moss, vermiculite, wetting agent and starter nutrients and treated with postemergence applications of the test chemicals formulated in the same manner. Plants ranged in height from 2 to 18 cm (1- to 4-leaf stage). Treated plants and controls were maintained in a controlled growth environment for 7 to 21 days after which time all species were compared to controls and visually evaluated. Plant response ratings, summarized in Table D, are based on a scale of 0 to 100 where 0 is no effect and 100 is complete control. A dash (-) response means no test result.

foxtail, green = test: Test C pre-/postemergence herbicide test; format: in vivo, Setaria viridis; conditions: Preemergence; for Foxtail, Green plant response rating: 31 g ai/ha
Summary of the method: (§1)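 Pre-emergence: seeds sown in loam/sand blend and treated with compound in surfactant-containing solvent. Post-emergence: plants at 2–18 cm (1- to 4-leaf stage) in peat-based medium sprayed with the same formulation. Visual rating versus controls after 13–15 days in greenhouse, scale 0 (no effect) to 100 (complete control).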

bromegrass, downy [2] = test: Test C pre-/postemergence herbicide test; format: in vivo, Bromus tectorum; conditions: Preemergence; for Bromegrass, Downy plant response rating: 31 g ai/ha
Summary of the method: as §1

goosegrass = test: Test C pre-/postemergence herbicide test; format: in vivo, Eleusine indica; conditions: Preemergence; for Goosegrass plant response rating: 31 g ai/ha
Summary of the method: as §1

sunflower = test: Test C pre-/postemergence herbicide test; format: in vivo, Helianthus annuus; conditions: Preemergence
Summary of the method: as §1

surinam grass = test: Test C pre-/postemergence herbicide test; format: in vivo, Brachiaria decumbens; conditions: Preemergence
Summary of the method: as §1

cocklebur = test: Test C pre-/postemergence herbicide test; format: in vivo, Xanthium strumarium; conditions: Preemergence; for Cocklebur plant response rating: 31 g ai/ha
Summary of the method: as §1

nightshade = test: Test C pre-/postemergence herbicide test; format: in vivo, Solanum ptycanthum; conditions: Preemergence
Summary of the method: as §1

cupgrass, woolly = test: Test C pre-/postemergence herbicide test; format: in vivo, Eriochloa villosa; conditions: Preemergence; for Cupgrass, Woolly plant response rating: 31 g ai/ha
Summary of the method: as §1

chickweed = test: Test D pre-/postemergence herbicide test; format: in vivo, Stellaria media; conditions: Postemergence, Chickweed, scale 0 to 100
Summary of the method: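 Plants were sown in silt loam for preemergence spraying or in a peat moss/vermiculite mix for postemergence spraying at 2 to 18 cm height. Formulations used a non-phytotoxic solvent mixture with a surfactant. After 7 to 21 days, responses were scored visually from 0 (no effect) to 100 (complete control).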

bermudagrass = test: Test C pre-/postemergence herbicide test; format: in vivo, Cynodon dactylon; conditions: Preemergence; for Bermudagrass plant response rating: 31 g ai/ha
Summary of the method: as §1

[3] = scale 0 to 100 (0 no effect, 100 complete control)
[4] = 125 g ai/ha, scale 0 to 100 (0 no effect, 100 complete control)
[5] = 250 g ai/ha, scale 0 to 100 (0 no effect, 100 complete control)

Compound `O=C1NCC(c2cc(F)c(F)c(F)c2)C1C(=O)Nc1ccccc1C(F)(F)F` (racemic) [Compound 33] has a Plant response rating (bromegrass, downy [1]; 16 g ai/ha) of 0, a Plant response rating (bromegrass, downy [1]; 31 g ai/ha) of 0 and a Plant response rating (bromegrass, downy [1]; 62 g ai/ha) of 0. For the same compound, the Plant response rating (bromegrass, downy [1]; 125 g ai/ha) was 0, the Plant response rating (bromegrass, downy [1]; 250 g ai/ha) was 0 and the “Foxtail, Green plant response rating” value (foxtail, green; [3]) was 95. For the same compound, the “Plant response rating, Foxtail, Green” value (foxtail, green; 62 g ai/ha, scale 0 to 100) was 98, the “Plant response rating, Foxtail, Green” value (foxtail, green; [4]) was 100 and the “Plant response rating, Foxtail, Green” value (foxtail, green; [5]) was 100. The “Bromegrass, Downy plant response rating” value (bromegrass, downy [2]; [3]) was 0, the “Plant response rating, Bromegrass, Downy” value (bromegrass, downy [2]; 62 g ai/ha, scale 0 to 100) was 0 and the “Plant response rating, Bromegrass, Downy” value (bromegrass, downy [2]; [4]) was 0. The “Plant response rating, Bromegrass, Downy” value (bromegrass, downy [2]; [5]) was 55, the “Goosegrass plant response rating” value (goosegrass; [3]) was 5 and the “Plant response rating, Goosegrass” value (goosegrass; 62 g ai/ha, scale 0 to 100) was 5. For the same compound, the “Plant response rating, Goosegrass” value (goosegrass; [4]) was 40, the “Plant response rating Sunflower” value (sunflower; 62 g ai/ha, scale 0 to 100) was 10 and the “Plant response rating, Surinam Grass” value (surinam grass; 62 g ai/ha, scale 0 to 100) was 80. For the same compound, the “Plant response rating, Surinam Grass” value (surinam grass; [4]) was 95, the “Cocklebur plant response rating” value (cocklebur; [3]) was 0 and the “Plant response rating, Cocklebur” value (cocklebur; [4]) was 10. The “Plant response rating, Cocklebur” value (cocklebur; [5]) was 10, the “Plant response rating, Nightshade” value (nightshade; 62 g ai/ha, scale 0 to 100) was 0 and the “Plant response rating, Nightshade” value (nightshade; [4]) was 0. The “Cupgrass, Woolly plant response rating” value (cupgrass, woolly; [3]) was 60, the “Plant response rating, Cupgrass, Woolly” value (cupgrass, woolly; 62 g ai/ha, scale 0 to 100) was 85 and the “Plant response rating, Cupgrass, Woolly” value (cupgrass, woolly; [4]) was 90. The “Plant response rating, Cupgrass, Woolly” value (cupgrass, woolly; [5]) was 90, the Plant response rating (chickweed; 16 g ai/ha) was 0 and the Plant response rating (chickweed; 31 g ai/ha) was 0. For the same compound, the Plant response rating (chickweed; 62 g ai/ha) was 0, the Plant response rating (chickweed; 125 g ai/ha) was 10 and the Plant response rating (chickweed; 250 g ai/ha) was 10. For the same compound, the “Bermudagrass plant response rating” value (bermudagrass; [3]) was 0, the “Plant response rating, Bermudagrass” value (bermudagrass; 62 g ai/ha, scale 0 to 100) was 0 and the “Plant response rating, Bermudagrass” value (bermudagrass; [4]) was 70. For the same compound, the “Plant response rating, Bermudagrass” value (bermudagrass; [5]) was 98.
In the case of `O=C1NCC(c2ccc3c(c2)OC(F)(F)O3)C1C(=O)Nc1cccc(F)c1F` (stereo not shown) [Compound 62], the “Foxtail, Green plant response rating” value (foxtail, green; [3]) is reported as 75, the “Plant response rating, Foxtail, Green” value (foxtail, green; 62 g ai/ha, scale 0 to 100) is reported as 90 and the “Plant response rating, Foxtail, Green” value (foxtail, green; [4]) is reported as 90. For the same compound, the “Plant response rating, Foxtail, Green” value (foxtail, green; [5]) was 90, the “Bromegrass, Downy plant response rating” value (bromegrass, downy [2]; [3]) was 0 and the “Plant response rating, Bromegrass, Downy” value (bromegrass, downy [2]; 62 g ai/ha, scale 0 to 100) was 0. For the same compound, the “Plant response rating, Bromegrass, Downy” value (bromegrass, downy [2]; [4]) was 0, the “Plant response rating, Bromegrass, Downy” value (bromegrass, downy [2]; [5]) was 0 and the “Goosegrass plant response rating” value (goosegrass; [3]) was 10. The “Plant response rating, Goosegrass” value (goosegrass; 62 g ai/ha, scale 0 to 100) was 25, the “Plant response rating, Goosegrass” value (goosegrass; [4]) was 70 and the “Plant response rating Sunflower” value (sunflower; 62 g ai/ha, scale 0 to 100) was 20. For the same compound, the “Plant response rating Sunflower” value (sunflower; [4]) was 25, the “Plant response rating, Surinam Grass” value (surinam grass; 62 g ai/ha, scale 0 to 100) was 60 and the “Plant response rating, Surinam Grass” value (surinam grass; [4]) was 80. For the same compound, the “Cocklebur plant response rating” value (cocklebur; [3]) was 0, the “Plant response rating, Cocklebur” value (cocklebur; [4]) was 0 and the “Plant response rating, Cocklebur” value (cocklebur; [5]) was 5. For the same compound, the “Plant response rating, Nightshade” value (nightshade; 62 g ai/ha, scale 0 to 100) was 15, the “Cupgrass, Woolly plant response rating” value (cupgrass, woolly; [3]) was 65 and the “Plant response rating, Cupgrass, Woolly” value (cupgrass, woolly; 62 g ai/ha, scale 0 to 100) was 75. The “Plant response rating, Cupgrass, Woolly” value (cupgrass, woolly; [4]) was 80, the “Plant response rating, Cupgrass, Woolly” value (cupgrass, woolly; [5]) was 85 and the “Bermudagrass plant response rating” value (bermudagrass; [3]) was 0. The “Plant response rating, Bermudagrass” value (bermudagrass; 62 g ai/ha, scale 0 to 100) was 30, the “Plant response rating, Bermudagrass” value (bermudagrass; [4]) was 50 and the “Plant response rating, Bermudagrass” value (bermudagrass; [5]) was 60.
With `O=C1NCC(c2ccc(F)c(Cl)c2)C1C(=O)Nc1cccc(F)c1F` (stereo not shown) [Compound 59] the “Foxtail, Green plant response rating” value (foxtail, green; [3]) was 85, the “Plant response rating, Foxtail, Green” value (foxtail, green; 62 g ai/ha, scale 0 to 100) was 90 and the “Plant response rating, Foxtail, Green” value (foxtail, green; [4]) was 90. For the same compound, the “Plant response rating, Foxtail, Green” value (foxtail, green; [5]) was 98, the “Bromegrass, Downy plant response rating” value (bromegrass, downy [2]; [3]) was 0 and the “Plant response rating, Bromegrass, Downy” value (bromegrass, downy [2]; 62 g ai/ha, scale 0 to 100) was 0. For the same compound, the “Plant response rating, Bromegrass, Downy” value (bromegrass, downy [2]; [4]) was 0, the “Plant response rating, Bromegrass, Downy” value (bromegrass, downy [2]; [5]) was 20 and the “Goosegrass plant response rating” value (goosegrass; [3]) was 15. For the same compound, the “Plant response rating, Goosegrass” value (goosegrass; 62 g ai/ha, scale 0 to 100) was 25, the “Plant response rating, Goosegrass” value (goosegrass; [4]) was 35 and the “Plant response rating Sunflower” value (sunflower; 62 g ai/ha, scale 0 to 100) was 5. The “Plant response rating Sunflower” value (sunflower; [4]) was 15, the “Plant response rating, Surinam Grass” value (surinam grass; 62 g ai/ha, scale 0 to 100) was 35 and the “Plant response rating, Surinam Grass” value (surinam grass; [4]) was 60. The “Plant response rating, Cocklebur” value (cocklebur; 62 g ai/ha, scale 0 to 100) was 0, the “Plant response rating, Nightshade” value (nightshade; [4]) was 25 and the “Cupgrass, Woolly plant response rating” value (cupgrass, woolly; [3]) was 40. The “Plant response rating, Cupgrass, Woolly” value (cupgrass, woolly; 62 g ai/ha, scale 0 to 100) was 70, the “Plant response rating, Cupgrass, Woolly” value (cupgrass, woolly; [4]) was 80 and the “Plant response rating, Cupgrass, Woolly” value (cupgrass, woolly; [5]) was 80. The “Bermudagrass plant response rating” value (bermudagrass; [3]) was 20, the “Plant response rating, Bermudagrass” value (bermudagrass; 62 g ai/ha, scale 0 to 100) was 20 and the “Plant response rating, Bermudagrass” value (bermudagrass; [4]) was 40. For the same compound, the “Plant response rating, Bermudagrass” value (bermudagrass; [5]) was 50.
In the case of `O=C1NCC(c2ccc(F)cc2)C1C(=O)Nc1ccccc1F` (racemic) [Compound 16], the “Foxtail, Green plant response rating” value (foxtail, green; [3]) is reported as 5, the “Plant response rating, Foxtail, Green” value (foxtail, green; 62 g ai/ha, scale 0 to 100) is reported as 35 and the “Plant response rating, Foxtail, Green” value (foxtail, green; [4]) is reported as 80. For the same compound, the “Plant response rating, Foxtail, Green” value (foxtail, green; [5]) was 90, the “Bromegrass, Downy plant response rating” value (bromegrass, downy [2]; [3]) was 0 and the “Plant response rating, Bromegrass, Downy” value (bromegrass, downy [2]; 62 g ai/ha, scale 0 to 100) was 5. The “Plant response rating, Bromegrass, Downy” value (bromegrass, downy [2]; [4]) was 30, the “Plant response rating, Bromegrass, Downy” value (bromegrass, downy [2]; [5]) was 35 and the “Goosegrass plant response rating” value (goosegrass; [3]) was 0. For the same compound, the “Plant response rating, Goosegrass” value (goosegrass; 62 g ai/ha, scale 0 to 100) was 0, the “Plant response rating, Goosegrass” value (goosegrass; [4]) was 0 and the “Plant response rating Sunflower” value (sunflower; 62 g ai/ha, scale 0 to 100) was 0. For the same compound, the “Plant response rating Sunflower” value (sunflower; [4]) was 0, the “Plant response rating, Surinam Grass” value (surinam grass; 62 g ai/ha, scale 0 to 100) was 95 and the “Plant response rating, Surinam Grass” value (surinam grass; [4]) was 98. For the same compound, the “Cocklebur plant response rating” value (cocklebur; [3]) was 0, the “Plant response rating, Cocklebur” value (cocklebur; 62 g ai/ha, scale 0 to 100) was 0 and the “Plant response rating, Cocklebur” value (cocklebur; [4]) was 0. The “Plant response rating, Cocklebur” value (cocklebur; [5]) was 0, the “Plant response rating, Nightshade” value (nightshade; 62 g ai/ha, scale 0 to 100) was 0 and the “Plant response rating, Nightshade” value (nightshade; [4]) was 0. For the same compound, the “Cupgrass, Woolly plant response rating” value (cupgrass, woolly; [3]) was 55, the “Plant response rating, Cupgrass, Woolly” value (cupgrass, woolly; 62 g ai/ha, scale 0 to 100) was 95 and the “Plant response rating, Cupgrass, Woolly” value (cupgrass, woolly; [4]) was 95. The “Plant response rating, Cupgrass, Woolly” value (cupgrass, woolly; [5]) was 95, the “Bermudagrass plant response rating” value (bermudagrass; [3]) was 0 and the “Plant response rating, Bermudagrass” value (bermudagrass; 62 g ai/ha, scale 0 to 100) was 0. The “Plant response rating, Bermudagrass” value (bermudagrass; [4]) was 90 and the “Plant response rating, Bermudagrass” value (bermudagrass; [5]) was 95.

— patent publication US10294202B2, “Pyrrolidinones as herbicides” (FMC Corporation, priority 2013, dated 2019)
